Measured values: the supplement of paper PMC10307832

Legend:
Test in all cases: relative viability (nuclei count vs DMSO), 5 days (fraction); higher = more cells survive
Quizartinib + AZD7762 = compound: CC(C)(C)c1cc(NC(=O)Nc2ccc(-c3cn4c(n3)sc3cc(OCCN5CCOCC5)ccc34)cc2)no1 [Quizartinib] + NC(=O)Nc1cc(-c2cccc(F)c2)sc1C(=O)N[C@H]1CCCNC1 [AZD7762] (partner 0.2 µM)
How it was run: (§1)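 Relative viability is defined as nuclei in treated wells over nuclei in vehicle wells. Duplicate plates were run and medians reported. Lung cancer cell lines in 1536-well plates were dosed by pin tool one day after seeding, with one drug or with a fixed anchor-drug dose plus five library-drug doses (not always all listed) in √10 steps, and nuclei were counted after 5 days.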

YM155 + Crizotinib = compound: COCC[n+]1c2c(n(Cc3cnccn3)c1C)C(=O)c1ccccc1C2=O [YM155] + C[C@@H](Oc1cc(-c2cnn(C3CCNCC3)c2)cnc1N)c1c(Cl)ccc(F)c1Cl [Crizotinib] (partner 1 µM)
How it was run: as §1

YM155 + Decitabine = compound: COCC[n+]1c2c(n(Cc3cnccn3)c1C)C(=O)c1ccccc1C2=O [YM155] + Nc1ncn([C@H]2C[C@H](O)[C@@H](CO)O2)c(=O)n1 [Decitabine] (partner 2 µM)
How it was run: as §1

[1] = compound: CC(C)(C)c1cc(NC(=O)Nc2ccc(-c3cn4c(n3)sc3cc(OCCN5CCOCC5)ccc34)cc2)no1 [Quizartinib] + CC(=O)c1c(C)c2cnc(Nc3ccc(N4CCNCC4)cn3)nc2n(C2CCCC2)c1=O [Palbociclib] (partner 0.5 µM)
How it was run: as §1

Row | Cell Line | relative viability (Quizartinib + AZD7762; first compound 0.001 µM) | relative viability (Quizartinib + AZD7762; first compound 0.003162 µM) | relative viability (Quizartinib + AZD7762; first compound 0.01 µM) | relative viability (Quizartinib + AZD7762; first compound 0.03162 µM) | relative viability (Quizartinib + AZD7762; first compound 0.1 µM) | relative viability (YM155 + Crizotinib; first compound 0.002 µM) | relative viability (YM155 + Crizotinib; first compound 0.006325 µM) | relative viability (YM155 + Crizotinib; first compound 0.02 µM) | relative viability (YM155 + Crizotinib; first compound 0.06325 µM) | relative viability (YM155 + Decitabine; first compound 0.002 µM) | relative viability (YM155 + Decitabine; first compound 0.006325 µM) | relative viability (YM155 + Decitabine; first compound 0.02 µM) | relative viability (YM155 + Decitabine; first compound 0.06325 µM) | relative viability ([1]; first compound 0.001 µM) | relative viability ([1]; first compound 0.003162 µM) | relative viability ([1]; first compound 0.01 µM) | relative viability ([1]; first compound 0.03162 µM) | relative viability ([1]; first compound 0.1 µM)
1 | 201T | 0.611 | 0.573 | 0.653 | 0.61 | 0.646 | 0.98 | 1 | 1.01 | 1.03 | 0.825 | 0.838 | 0.851 | 0.88 | 0.322 | 0.371 | 0.361 | 0.401 | 0.401
2 | HCC-827 | 0.344 | 0.196 |  | 0.177 | 0.247 | 0.866 | 0.968 | 0.918 | 0.89 | 0.352 | 0.408 | 0.299 | 0.354 | 0.515 | 0.471 |  | 0.65 | 0.471
3 | LCLC-97TM1 | 0.197 | 0.334 | 0.325 | 0.179 | 0.361 | 0.401 | 0.4 | 0.442 | 0.318 |  | 0.178 | 0.202 | 0.254 | 0.22 | 0.226 | 0.219 | 0.241 | 0.236
4 | NCI-H441 | 0.872 | 1.04 | 1.14 | 0.991 | 1.1 | 0.676 | 0.623 | 0.694 | 0.509 | 0.277 | 0.243 | 0.248 | 0.189 | 0.191 | 0.222 | 0.169 | 0.191 | 0.219
5 | NCI-H838 | 0.769 | 0.925 | 1.04 | 0.859 | 0.902 | 0.825 | 0.909 | 0.911 | 0.297 | 0.423 | 0.471 | 0.399 | 0.383 | 0.212 | 0.244 | 0.205 | 0.217 | 0.179
